The results in this text go back to patent publication US20090098130A1, “GLUCAGON-LIKE PROTEIN-1 RECEPTOR (GLP-1R) AGONIST COMPOUNDS” (priority 2007, published 2009).

For the experiment, the system named is pancreatic β cells. Kind of experiment: glucose-stimulated insulin secretion (GSIS) assay. It is filed as cell-based. The procedure: Briefly, glucose and GA targeting peptide was added at various concentrations to pancreatic β cell cultures, and insulin secretion was detected by measuring insulin levels over time. EC50 was calculated for each peptide.
The ability of these GA targeting agent-linker conjugates to stimulate […] secretion in vitro was measured using the GSIS assay described in Example 27. […] Each of these peptides contained a side-chain modified Lys residue according to the scheme illustrated in FIG. 30 at a different position.

The mark [1] stands for this setting: GA targeting agent-linker conjugate, GSIS assay in vitro.
Where [2] appears, read: GA targeting peptide, insulin secretion from pancreatic β cell cultures in vitro with glucose.

Non-standard residues stand in square brackets, D forms with d. Residues, ends and D or L forms follow the SMILES beside them. Aib = CC(C)(N)C(=O)O

Consider `CC[C@H](C)[C@H](NC(=O)[C@H](Cc1ccccc1)NC(=O)[C@H](CCC(=O)O)NC(=O)[C@H](CCCCN)NC(=O)[C@H](C)NC(=O)[C@H](C)NC(=O)[C@H](CCC(N)=O)NC(=O)CNC(=O)[C@H](CCC(=O)O)NC(=O)[C@H](CC(C)C)NC(=O)[C@H](Cc1ccc(O)cc1)NC(=O)[C@H](CO)NC(=O)[C@H](CO)NC(=O)[C@@H](NC(=O)[C@H](CC(=O)O)NC(=O)[C@H](CO)NC(=O)[C@@H](NC(=O)[C@H](Cc1ccccc1)NC(=O)[C@@H](NC(=O)CNC(=O)[C@H](CCC(=O)O)NC(=O)CNC(=O)[C@H](Cc1c[nH]cn1)NC(=O)CCOCCOCCOCCOCCNC(=O)CCCC(=O)Nc1ccc(CCC(=O)CC(C)=O)cc1)[C@@H](C)O)[C@@H](C)O)C(C)C)C(=O)N[C@@H](C)C(=O)N[C@@H](Cc1c[nH]c2ccccc12)C(=O)N[C@@H](CC(C)C)C(=O)N[C@H](C(=O)N[C@@H](CCCCN)C(=O)NCC(=O)N[C@@H](CCCNC(=N)N)C(=O)N[C@@H](CCCCN)C(N)=O)C(C)C`, for which the EC50 – broadly, the midpoint of the concentration-response curve – under setting [1] was less than 10 µM. Regarding `CC/C=C/CC(=O)N[C@@H](Cc1c[nH]cn1)C(=O)NC(C)(C)C(=O)N[C@@H](CCC(=O)O)C(=O)NCC(=O)N[C@H](C(=O)N[C@@H](Cc1ccccc1)C(=O)N[C@H](C(=O)N[C@@H](CO)C(=O)N[C@@H](CC(=O)O)C(=O)N[C@H](C(=O)N[C@@H](CO)C(=O)N[C@@H](CO)C(=O)N[C@@H](Cc1ccc(O)cc1)C(=O)N[C@@H](CC(C)C)C(=O)N[C@@H](CCC(=O)O)C(=O)N[C@@H](CCC(=O)O)C(=O)N[C@@H](CCC(N)=O)C(=O)N[C@@H](C)C(=O)N[C@H](C(=O)N[C@@H](CCCCN)C(=O)N[C@@H](CCC(=O)O)C(=O)N[C@@H](Cc1ccccc1)C(=O)N[C@H](C(=O)N[C@@H](C)C(=O)N[C@@H](Cc1c[nH]c2ccccc12)C(=O)N[C@@H](CC(C)C)C(=O)N[C@H](C(=O)N[C@@H](CCCCN)C(=O)NC(C)(C)C(=O)N[C@@H](CCCNC(=N)N)C(N)=O)[C@@H](C)CC)[C@@H](C)CC)C(C)C)C(C)C)[C@@H](C)O)[C@@H](C)O`, the concentration giving a half-maximal response (EC50) under setting [1] is less than 10 µM.

Compound `CC[C@H](C)[C@H](NC(=O)[C@H](Cc1ccccc1)NC(=O)[C@H](CCC(=O)O)NC(=O)[C@H](CCCCN)NC(=O)[C@@H](NC(=O)[C@H](C)NC(=O)[C@H](CCC(N)=O)NC(=O)[C@H](CCC(=O)O)NC(=O)[C@H](CCC(=O)O)NC(=O)[C@H](CC(C)C)NC(=O)[C@H](Cc1ccc(O)cc1)NC(=O)[C@H](CO)NC(=O)[C@H](CO)NC(=O)[C@@H](NC(=O)[C@H](CC(=O)O)NC(=O)[C@H](CO)NC(=O)[C@@H](NC(=O)[C@H](Cc1ccccc1)NC(=O)[C@@H](NC(=O)CNC(=O)[C@H](CCC(=O)O)NC(=O)C(C)(C)NC(=O)[C@H](Cc1c[nH]cn1)NC(=O)Cc1cccc(N)c1)[C@@H](C)O)[C@@H](C)O)C(C)C)C(C)C)C(=O)N[C@@H](C)C(=O)N[C@@H](Cc1c[nH]c2ccccc12)C(=O)N[C@@H](CC(C)C)C(=O)N[C@H](C(=O)N[C@@H](CCCCN)C(=O)NC(C)(C)C(=O)N[C@@H](CCCNC(=N)N)C(N)=O)[C@@H](C)CC` gave a 50% effective concentration (EC50) under setting [1] of less than 10 µM. The compound `CC[C@H](C)[C@H](NC(=O)[C@H](Cc1ccccc1)NC(=O)[C@H](CCC(=O)O)NC(=O)[C@H](CCCCN)NC(=O)[C@H](C)NC(=O)[C@H](C)NC(=O)[C@H](CCC(N)=O)NC(=O)CNC(=O)[C@H](CCC(=O)O)NC(=O)[C@H](CC(C)C)NC(=O)[C@H](Cc1ccc(O)cc1)NC(=O)[C@H](CO)NC(=O)[C@H](CO)NC(=O)[C@@H](NC(=O)[C@H](CC(=O)O)NC(=O)[C@H](CO)NC(=O)[C@@H](NC(=O)[C@H](Cc1ccccc1)NC(=O)[C@@H](NC(=O)CNC(=O)[C@H](CCC(=O)O)NC(=O)[C@H](C)NC(=O)[C@@H](N)Cc1c[nH]cn1)[C@@H](C)O)[C@@H](C)O)C(C)C)C(=O)N[C@@H](C)C(=O)N[C@@H](Cc1c[nH]c2ccccc12)C(=O)N[C@@H](CC(C)C)C(=O)N[C@H](C(=O)N[C@@H](CCCCN)C(=O)NCC(=O)N[C@@H](CCCNC(=N)N)C(N)=O)C(C)C` [SEQ ID NO: 1, reference compound] yielded an EC50 under setting [2] of less than 10 µM. The compound `CC[C@H](C)[C@H](NC(=O)[C@H](Cc1ccccc1)NC(=O)[C@H](CCC(=O)O)NC(=O)[C@H](CCCCN)NC(=O)[C@H](C)NC(=O)[C@H](C)NC(=O)[C@H](CCC(N)=O)NC(=O)CNC(=O)[C@H](CCC(=O)O)NC(=O)CNC(=O)[C@H](Cc1ccc(O)cc1)NC(=O)[C@H](CO)NC(=O)[C@H](CO)NC(=O)[C@@H](NC(=O)[C@H](CC(=O)O)NC(=O)[C@H](CO)NC(=O)[C@@H](NC(=O)[C@H](Cc1ccccc1)NC(=O)[C@@H](NC(=O)CNC(=O)[C@H](CCC(=O)O)NC(=O)C(C)(C)NC(=O)[C@@H](N)Cc1c[nH]cn1)[C@@H](C)O)[C@@H](C)O)C(C)C)C(=O)N[C@@H](C)C(=O)N[C@@H](Cc1c[nH]c2ccccc12)C(=O)N[C@@H](CC(C)C)C(=O)N[C@H](C(=O)N[C@@H](CCCCN)C(=O)NC(C)(C)C(=O)N[C@@H](CCCNC(=N)N)C(N)=O)C(C)C` [SEQ ID NO: 40] (H-H[Aib]EGTFTSDVSSYGEGQAAKEFIAWLVK[Aib]R-NH2) had an EC50 under setting [2] of less than 10 µM. Compound `CC[C@H](C)[C@H](NC(=O)[C@H](Cc1ccccc1)NC(=O)[C@H](CCC(=O)O)NC(=O)[C@H](CCCCN)NC(=O)[C@H](C)NC(=O)[C@H](C)NC(=O)[C@H](CCC(N)=O)NC(=O)CNC(=O)[C@H](CCC(=O)O)NC(=O)[C@H](CS)NC(=O)[C@H](Cc1ccc(O)cc1)NC(=O)[C@H](CO)NC(=O)[C@H](CO)NC(=O)[C@@H](NC(=O)[C@H](CC(=O)O)NC(=O)[C@H](CO)NC(=O)[C@@H](NC(=O)[C@H](Cc1ccccc1)NC(=O)[C@@H](NC(=O)CNC(=O)[C@H](CCC(=O)O)NC(=O)C(C)(C)NC(=O)[C@@H](N)Cc1c[nH]cn1)[C@@H](C)O)[C@@H](C)O)C(C)C)C(=O)N[C@@H](C)C(=O)N[C@@H](Cc1c[nH]c2ccccc12)C(=O)N[C@@H](CC(C)C)C(=O)N[C@H](C(=O)N[C@@H](CCCCN)C(=O)NC(C)(C)C(=O)N[C@@H](CCCNC(=N)N)C(N)=O)C(C)C` [SEQ ID NO: 41] (H-H[Aib]EGTFTSDVSSYCEGQAAKEFIAWLVK[Aib]R-NH2) had a 50% effective concentration (EC50) under setting [2] of less than 10 µM. `CC[C@H](C)[C@H](NC(=O)[C@H](Cc1ccccc1)NC(=O)[C@H](CCC(=O)O)NC(=O)[C@H](CCCCN)NC(=O)[C@H](C)NC(=O)[C@H](C)NC(=O)[C@H](CCC(N)=O)NC(=O)CNC(=O)[C@H](CCC(=O)O)NC(=O)[C@H](Cc1ccccc1)NC(=O)[C@H](Cc1ccc(O)cc1)NC(=O)[C@H](CO)NC(=O)[C@H](CO)NC(=O)[C@@H](NC(=O)[C@H](CC(=O)O)NC(=O)[C@H](CO)NC(=O)[C@@H](NC(=O)[C@H](Cc1ccccc1)NC(=O)[C@@H](NC(=O)CNC(=O)[C@H](CCC(=O)O)NC(=O)C(C)(C)NC(=O)[C@@H](N)Cc1c[nH]cn1)[C@@H](C)O)[C@@H](C)O)C(C)C)C(=O)N[C@@H](C)C(=O)N[C@@H](Cc1c[nH]c2ccccc12)C(=O)N[C@@H](CC(C)C)C(=O)N[C@H](C(=O)N[C@@H](CCCCN)C(=O)NC(C)(C)C(=O)N[C@@H](CCCNC(=N)N)C(N)=O)C(C)C` [SEQ ID NO: 42] (H-H[Aib]EGTFTSDVSSYFEGQAAKEFIAWLVK[Aib]R-NH2): under setting [2], the EC50 is less than 10 µM. `CC[C@H](C)[C@H](NC(=O)[C@H](Cc1ccccc1)NC(=O)[C@H](CCC(=O)O)NC(=O)[C@H](CCCCN)NC(=O)[C@H](C)NC(=O)[C@H](C)NC(=O)[C@H](CCC(N)=O)NC(=O)CNC(=O)[C@H](CCC(=O)O)NC(=O)[C@H](Cc1ccc(O)cc1)NC(=O)[C@H](Cc1ccc(O)cc1)NC(=O)[C@H](CO)NC(=O)[C@H](CO)NC(=O)[C@@H](NC(=O)[C@H](CC(=O)O)NC(=O)[C@H](CO)NC(=O)[C@@H](NC(=O)[C@H](Cc1ccccc1)NC(=O)[C@@H](NC(=O)CNC(=O)[C@H](CCC(=O)O)NC(=O)C(C)(C)NC(=O)[C@@H](N)Cc1c[nH]cn1)[C@@H](C)O)[C@@H](C)O)C(C)C)C(=O)N[C@@H](C)C(=O)N[C@@H](Cc1c[nH]c2ccccc12)C(=O)N[C@@H](CC(C)C)C(=O)N[C@H](C(=O)N[C@@H](CCCCN)C(=O)NC(C)(C)C(=O)N[C@@H](CCCNC(=N)N)C(N)=O)C(C)C` [SEQ ID NO: 43] (H-H[Aib]EGTFTSDVSSYYEGQAAKEFIAWLVK[Aib]R-NH2) had an EC50 under setting [2] of less than 10 µM. `CC[C@H](C)[C@H](NC(=O)[C@H](Cc1ccccc1)NC(=O)[C@H](CCC(=O)O)NC(=O)[C@H](CCCCN)NC(=O)[C@H](C)NC(=O)[C@H](C)NC(=O)[C@H](CCC(N)=O)NC(=O)CNC(=O)[C@H](CCC(=O)O)NC(=O)[C@H](Cc1c[nH]c2ccccc12)NC(=O)[C@H](Cc1ccc(O)cc1)NC(=O)[C@H](CO)NC(=O)[C@H](CO)NC(=O)[C@@H](NC(=O)[C@H](CC(=O)O)NC(=O)[C@H](CO)NC(=O)[C@@H](NC(=O)[C@H](Cc1ccccc1)NC(=O)[C@@H](NC(=O)CNC(=O)[C@H](CCC(=O)O)NC(=O)C(C)(C)NC(=O)[C@@H](N)Cc1c[nH]cn1)[C@@H](C)O)[C@@H](C)O)C(C)C)C(=O)N[C@@H](C)C(=O)N[C@@H](Cc1c[nH]c2ccccc12)C(=O)N[C@@H](CC(C)C)C(=O)N[C@H](C(=O)N[C@@H](CCCCN)C(=O)NC(C)(C)C(=O)N[C@@H](CCCNC(=N)N)C(N)=O)C(C)C` [SEQ ID NO: 44] (H-H[Aib]EGTFTSDVSSYWEGQAAKEFIAWLVK[Aib]R-NH2) yielded a concentration giving a half-maximal response (EC50) under setting [2] of less than 10 µM. Under setting [2], `CC[C@H](C)[C@H](NC(=O)[C@H](Cc1ccccc1)NC(=O)[C@H](CCC(=O)O)NC(=O)[C@H](CCCCN)NC(=O)[C@H](C)NC(=O)[C@H](C)NC(=O)[C@H](CCC(N)=O)NC(=O)[C@H](CCC(=O)O)NC(=O)[C@H](CCC(=O)O)NC(=O)[C@H](CC(C)C)NC(=O)[C@H](Cc1ccc(O)cc1)NC(=O)[C@H](CO)NC(=O)[C@H](CO)NC(=O)[C@@H](NC(=O)[C@H](CC(=O)O)NC(=O)[C@H](CO)NC(=O)[C@@H](NC(=O)[C@H](Cc1ccccc1)NC(=O)[C@@H](NC(=O)CNC(=O)[C@H](CCC(=O)O)NC(=O)C(C)(C)NC(=O)[C@@H](N)Cc1c[nH]cn1)[C@@H](C)O)[C@@H](C)O)C(C)C)C(=O)N[C@@H](C)C(=O)N[C@@H](Cc1c[nH]c2ccccc12)C(=O)N[C@@H](CC(C)C)C(=O)N[C@H](C(=O)N[C@@H](CCCCN)C(=O)NC(C)(C)C(=O)N[C@@H](CCCNC(=N)N)C(N)=O)C(C)C` [SEQ ID NO: 45] (H-H[Aib]EGTFTSDVSSYLEEQAAKEFIAWLVK[Aib]R-NH2) had a half-maximal effective concentration (EC50) of less than 10 µM.
